In experiment [1] the target is T1, DNA topoisomerase I (MtbTopoI) (Mycobacterium tuberculosis, UniProt P9WG49).
T1 construct: gene topA
It counts as biochemical.

The target of experiment [2] is T1, DNA topoisomerase I (MtbTopoI). Put plainly: […]; also inhibits cleavage of a 32-mer single-stranded DNA. It counts as biochemical.

Consider two compounds from PMC6066988 (Frontiers in Microbiology, 2018).

Where two headings read alike, the source gives them in different places.

T1 sequence (P9WG49 whole entry): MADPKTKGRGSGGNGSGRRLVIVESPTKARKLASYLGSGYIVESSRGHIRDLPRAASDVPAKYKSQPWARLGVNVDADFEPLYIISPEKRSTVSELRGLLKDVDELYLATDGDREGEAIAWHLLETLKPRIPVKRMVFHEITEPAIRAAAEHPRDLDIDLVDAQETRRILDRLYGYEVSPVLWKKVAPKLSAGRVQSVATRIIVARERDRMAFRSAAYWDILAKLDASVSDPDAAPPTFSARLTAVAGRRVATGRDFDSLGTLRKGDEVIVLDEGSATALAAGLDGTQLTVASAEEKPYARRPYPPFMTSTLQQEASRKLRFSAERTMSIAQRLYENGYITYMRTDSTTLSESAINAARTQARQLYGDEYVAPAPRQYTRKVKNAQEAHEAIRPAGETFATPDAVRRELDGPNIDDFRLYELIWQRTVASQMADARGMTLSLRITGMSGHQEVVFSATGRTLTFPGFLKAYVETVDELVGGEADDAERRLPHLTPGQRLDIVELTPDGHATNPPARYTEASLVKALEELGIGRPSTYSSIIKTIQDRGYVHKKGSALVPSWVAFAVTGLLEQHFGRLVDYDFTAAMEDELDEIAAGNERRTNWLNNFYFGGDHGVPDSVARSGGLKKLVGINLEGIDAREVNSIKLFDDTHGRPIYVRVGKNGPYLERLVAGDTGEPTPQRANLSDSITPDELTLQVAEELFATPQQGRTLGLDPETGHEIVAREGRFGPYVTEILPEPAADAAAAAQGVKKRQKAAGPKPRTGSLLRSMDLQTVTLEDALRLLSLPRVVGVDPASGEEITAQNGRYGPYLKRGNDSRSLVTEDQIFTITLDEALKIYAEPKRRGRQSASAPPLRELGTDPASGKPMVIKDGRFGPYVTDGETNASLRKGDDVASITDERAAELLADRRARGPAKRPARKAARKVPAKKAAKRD

By IC50 is commonly meant the point on the concentration scale where inhibition reaches its midpoint. A high value points to lower potency. `CN(C)CCc1cc2c(c3c1ccc1cc4c(cc13)OCO4)OCO2` [N-SCN, N-methyl-seconeolitsine]: the IC50 in experiment [1] came out at 5.6 ± 0.8 µM.

`CNCCc1cc2c(c3c1ccc1cc4c(cc13)OCO4)OCO2` [SCN, seconeolitsine]: it took 8.4 ± 0.3 µM to reach half-maximal inhibition in experiment [2] (IC50).
